Measured values from patent US20260325533A1, “CDK INHIBITOR COMPOUNDS” (ALEKSIA THERAPEUTICS, INC., priority 2023, published 2026).
Read-outs that look alike come from different tables or passages of the source.

Assays:
Assay type in all cases: biochemical
CDK2/CCNE1 = CDK2/CCNE1 (Homo sapiens, UniProt P24941); assay: CDK2 homogeneous time-resolved fluorescence (HTRF) kinase assay; conditions: CDK2/CCNE
How it was run: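 TR-FRET read-out (665 nm, or 665/615 ratio) of Eu-antibody detection of phospho-4E-BP1 (Thr37/46) ULight peptide. Enzyme 3 nM, ATP 1 mM, peptide 50 nM, 1% DMSO; 60 min reaction at 23 °C after 20 min compound preincubation. IC50 from 11-point half-log titrations, top typically 10 μM.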

CDK1/CCNB1 = CDK1/CCNB1 (Homo sapiens, UniProt P06493); assay: CDK1 homogeneous time-resolved fluorescence (HTRF) kinase assay; conditions: CDK1/CCNB
How it was run: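 Kinase activity is measured as Lance signal (665 nm, or 665/615 nm ratio) from europium-labelled anti-phospho-Thr37/46 antibody binding ULight-4E-BP1 peptide. Reactions contain 0.5 nM enzyme, 1 mM ATP, 1% DMSO and run 60 min at 23 °C before EDTA quench.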

CDK4/CCND3 = CDK4/CCND3 (Homo sapiens, UniProt P11802); assay: CDK4 homogeneous time-resolved fluorescence (HTRF) kinase assay; conditions: CDK4/CCND
Description: A CDK homogeneous time-resolved fluorescence (HTRF) assay was used to assess the potency of the compounds described herein.
To an untreated 384-well microtiter plate (ProxiPlate) was added 100 nL 100×test compound in DMSO and 5 μL 2×CDK enzyme in assay buffer (50 mM HEPES, 1 mM EGTA, 10 mM MgCl2, 0.01% Tween 20, 2 mM DTT). The plate was centrifuged at 800 RPM for 1 min then incubated for 20 min at 23 °C. 2.5 μL per well of 4×ATP and 2.5 μL 4×ULight™-eIF4E-binding protein 1 (Thr37/46) Peptide substrate were added to all wells. After addition, the plates were centrifuged at 800 RPM for 1 min. The plates were incubated at 23 °C for 60 min. 5 μL per well 4×EDTA solution were added to each well to stop the reaction. 5 μL 4×LANCE Ultra Europium-anti-phospho-eIF4E-binding protein 1 (Thr37/46) antibody were added to each well and the plate was centrifuged for 1 min at 800 RPM. The plate was incubated for 60 min at 23 °C. Fluorescence was read at 340 nm excitation and 665 nm emission on an EnVision 2105 fluorescence reader. The final concentrations of reagents in the activity assay were 1.5 nM CDK4/CCND3, 1 mM ATP, 50 nM ULight™-eIF4E-binding protein 1 (Thr37/46) Peptide substrate, 1% DMSO, 10 mM EDTA, and 2 nM LANCE Ultra Europium-anti-phospho-eIF4E-binding protein 1 (Thr37/46).
Dose-response titrations were conducted by using an 11-point, half-logarithmic serial dilution scheme typically starting at 10 μM. Signals were reported as fluorescence units at 665 nm or the ratio of fluorescence units at 665 nm/fluorescence units at 615 nm. Signals are referred to below as “Lance signals”.
Using this assay, the IC50 values of example compounds were determined. Table 3 illustrates the IC50 for various Example compounds of Formula IA. Table 4 illustrates the IC50 for various other Example compounds of Formula I. ND=not determined.

CDK6/CCND1 = CDK6/CCND1 (Homo sapiens, UniProt Q00534); assay: CDK6 homogeneous time-resolved fluorescence (HTRF) kinase assay; conditions: CDK6/CCND
How it was run: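 Recombinant CDK6/CCND1 (1 nM final) was preincubated with compound for 20 min at 23 °C in HEPES buffer with MgCl2, EGTA, DTT and Tween 20. Kinase reaction then ran 60 min at 23 °C with 1 mM ATP and 50 nM ULight-4E-BP1 (Thr37/46) peptide, and was stopped with EDTA.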

[1] = 25-250 nM marked x, read-out: CDK2/CCNE IC50 25-250 nM
[2] = >250 nM marked x, read-out: CDK1/CCNB IC50 >250 nM
[3] = <25 nM, read-out: CDK4/CCND IC50 <25 nM
[4] = <25 nM, read-out: CDK6/CCND IC50 <25 nM
[5] = <25 nM, read-out: CDK2/CCNE IC50 <25 nM
[6] = 25-250 nM marked x, read-out: CDK1/CCNB IC50 25-250 nM
[7] = 25-250 nM marked x, read-out: CDK4/CCND IC50 25-250 nM
[8] = 25-250 nM marked x, read-out: CDK6/CCND IC50 25-250 nM
[9] = >250 nM marked x, read-out: CDK4/CCND IC50 >250 nM
[10] = >250 nM marked x, read-out: CDK6/CCND IC50 >250 nM
[11] = >250 nM marked x, read-out: CDK2/CCNE IC50 >250 nM

Chain of CDK1/CCNB1 (P06493 whole entry): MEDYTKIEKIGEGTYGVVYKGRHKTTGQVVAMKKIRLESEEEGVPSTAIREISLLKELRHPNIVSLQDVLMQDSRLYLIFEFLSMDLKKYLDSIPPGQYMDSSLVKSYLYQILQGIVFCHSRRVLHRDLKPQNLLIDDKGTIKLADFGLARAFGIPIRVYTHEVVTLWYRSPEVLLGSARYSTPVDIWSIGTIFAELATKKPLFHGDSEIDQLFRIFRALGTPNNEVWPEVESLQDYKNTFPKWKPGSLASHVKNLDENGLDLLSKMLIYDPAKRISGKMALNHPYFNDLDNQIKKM
Chain of CDK1/CCNB1 (P14635 whole entry partner): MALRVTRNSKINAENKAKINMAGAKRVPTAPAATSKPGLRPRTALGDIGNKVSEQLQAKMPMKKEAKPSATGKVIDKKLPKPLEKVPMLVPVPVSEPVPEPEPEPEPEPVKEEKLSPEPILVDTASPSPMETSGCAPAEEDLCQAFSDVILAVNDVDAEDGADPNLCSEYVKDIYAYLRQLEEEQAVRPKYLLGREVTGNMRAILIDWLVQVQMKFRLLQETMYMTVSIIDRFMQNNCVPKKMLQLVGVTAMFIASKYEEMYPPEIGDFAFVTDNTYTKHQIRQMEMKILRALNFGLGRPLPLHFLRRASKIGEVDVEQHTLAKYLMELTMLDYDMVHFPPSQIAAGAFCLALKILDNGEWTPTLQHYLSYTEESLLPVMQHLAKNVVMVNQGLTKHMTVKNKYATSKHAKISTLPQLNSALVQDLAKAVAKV
Chain of CDK4/CCND3 (P11802 whole entry): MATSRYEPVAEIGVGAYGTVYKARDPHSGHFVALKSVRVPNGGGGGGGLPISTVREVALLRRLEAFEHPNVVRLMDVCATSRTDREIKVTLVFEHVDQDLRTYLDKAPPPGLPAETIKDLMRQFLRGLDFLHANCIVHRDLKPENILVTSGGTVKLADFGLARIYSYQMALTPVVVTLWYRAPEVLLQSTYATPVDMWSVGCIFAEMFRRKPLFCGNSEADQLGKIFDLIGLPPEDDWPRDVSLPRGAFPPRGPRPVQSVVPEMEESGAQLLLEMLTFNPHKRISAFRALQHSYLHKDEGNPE
Chain of CDK4/CCND3 (P30281 whole entry partner): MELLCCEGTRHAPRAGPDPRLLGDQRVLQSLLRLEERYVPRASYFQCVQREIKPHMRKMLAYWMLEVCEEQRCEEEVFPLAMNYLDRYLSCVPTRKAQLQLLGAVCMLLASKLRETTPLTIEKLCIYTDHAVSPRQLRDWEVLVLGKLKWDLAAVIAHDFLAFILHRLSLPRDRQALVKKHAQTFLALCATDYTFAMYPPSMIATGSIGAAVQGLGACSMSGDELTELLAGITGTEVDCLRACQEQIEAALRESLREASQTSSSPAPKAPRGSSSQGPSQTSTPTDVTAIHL
Chain of CDK6/CCND1 (Q00534 whole entry): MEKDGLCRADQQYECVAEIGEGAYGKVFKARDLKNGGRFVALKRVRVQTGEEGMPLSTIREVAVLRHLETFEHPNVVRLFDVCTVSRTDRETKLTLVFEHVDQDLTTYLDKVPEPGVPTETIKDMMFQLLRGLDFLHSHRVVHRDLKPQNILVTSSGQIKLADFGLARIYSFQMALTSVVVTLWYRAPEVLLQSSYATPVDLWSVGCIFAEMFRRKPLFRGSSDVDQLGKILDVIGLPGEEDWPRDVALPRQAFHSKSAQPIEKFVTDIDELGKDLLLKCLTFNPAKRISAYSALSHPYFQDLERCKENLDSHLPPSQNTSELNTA
Chain of CDK6/CCND1 (P24385 whole entry partner): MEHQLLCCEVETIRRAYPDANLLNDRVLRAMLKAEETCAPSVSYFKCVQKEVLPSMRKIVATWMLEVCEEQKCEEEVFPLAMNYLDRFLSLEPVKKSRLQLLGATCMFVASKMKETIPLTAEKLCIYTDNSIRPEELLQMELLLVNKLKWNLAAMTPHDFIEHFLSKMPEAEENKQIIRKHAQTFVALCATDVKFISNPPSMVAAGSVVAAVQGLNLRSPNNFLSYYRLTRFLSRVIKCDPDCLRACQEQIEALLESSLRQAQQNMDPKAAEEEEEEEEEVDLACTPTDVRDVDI

Row | IC50 (CDK2/CCNE1; [1]) | IC50 (CDK1/CCNB1; [2]) | IC50 (CDK4/CCND3; [3]) | IC50 (CDK6/CCND1; [4]) | IC50 (CDK2/CCNE1; [5]) | IC50 (CDK1/CCNB1; [6]) | IC50 (CDK4/CCND3; [7]) | IC50 (CDK6/CCND1; [8]) | IC50 (CDK4/CCND3; [9]) | IC50 (CDK6/CCND1; [10]) | IC50 (CDK2/CCNE1; [11]) | SMILES
1 | 25 to 250 nM | > 250 nM | < 25 nM | < 25 nM | – | – | – | – | – | – | – | CN(C)C1CCCN(c2nccc3cnc(NC4CCN(S(C)(=O)=O)CC4)cc23)CC1 (racemic) [Ex 52, 5-(4-(dimethylamino)azepan-1-yl)-N-(1-(methylsulfonyl)piperidin-4-yl)-2,6-naphthyridin-3-amine]
2 | – | – | < 25 nM | < 25 nM | < 25 nM | 25 to 250 nM | – | – | – | – | – | O=C(NC1CCSC1=O)c1ccc(Nc2cc3c(C4=CCCCC4)nccc3cn2)cc1 (racemic) [Ex 114, 4-((5-(cyclohex-1-en-1-yl)-2,6-naphthyridin-3-yl)amino)-N-(2-oxotetrahydrothiophen-3-yl)benzamide]
3 | – | > 250 nM | – | – | < 25 nM | – | 25 to 250 nM | 25 to 250 nM | – | – | – | CS(=O)(=O)c1ccc(Nc2cc3c(C4=CCC(O)CC4)nccc3cn2)cc1 (racemic) [Ex 120, 4-(7-((4-(methylsulfonyl)phenyl)amino)-2,6-naphthyridin-1-yl)cyclohex-3-en-1-ol]
4 | – | > 250 nM | – | – | < 25 nM | – | 25 to 250 nM | 25 to 250 nM | – | – | – | CS(=O)(=O)c1ccc(Nc2cc3c(C4=CCC(C#N)CC4)nccc3cn2)cc1 (racemic) [Ex 121, 4-(7-((4-(methylsulfonyl)phenyl)amino)-2,6-naphthyridin-1-yl)cyclohex-3-ene-1-carbonitrile]
5 | 25 to 250 nM | > 250 nM | – | – | – | – | – | – | > 250 nM | > 250 nM | – | C=CS(=O)(=O)c1ccc(Nc2cc3c(N4CCC(C#N)C4)nccc3cn2)cc1 (racemic) [Ex 122, 1-(7-((4-(vinylsulfonyl)phenyl)amino)-2,6-naphthyridin-1-yl)pyrrolidine-3-carbonitrile]
6 | – | – | – | – | < 25 nM | 25 to 250 nM | 25 to 250 nM | 25 to 250 nM | – | – | – | CS(=O)(=O)c1ccc(Nc2cc3c(C#CC4CC(O)C4)nccc3cn2)cc1 (racemic) [Ex 147, 3-((7-((4-(methylsulfonyl)phenyl)amino)-2,6-naphthyridin-1-yl)ethynyl)cyclobutan-1-ol]
7 | – | > 250 nM | – | – | < 25 nM | – | 25 to 250 nM | 25 to 250 nM | – | – | – | Cc1c(-c2nccc3cnc(Nc4ccc(S(C)(=O)=O)cc4)cc23)ccc2c1cnn2CC1CCNC1 (racemic) [Ex 193, 5-(4-methyl-1-(pyrrolidin-3-ylmethyl)-1H-indazol-5-yl)-N-(4-(methylsulfonyl)phenyl)-2,6-naphthyridin-3-amine]
8 | 25 to 250 nM | > 250 nM | – | – | – | – | – | – | > 250 nM | > 250 nM | – | CS(=O)(=O)c1ccc(Nc2cc3c(C4CCC(O)CC4)nccc3cn2)cc1 (racemic) [Ex 215, 4-(7-((4-(methylsulfonyl)phenyl)amino)-2,6-naphthyridin-1-yl)cyclohexan-1-ol]
9 | 25 to 250 nM | > 250 nM | – | – | – | – | – | – | > 250 nM | > 250 nM | – | O=S(=O)(CCO)c1ccc(Nc2cc3c(N4CCC(O)C4)nccc3cn2)cc1 (racemic) [Ex 221, 1-(7-((4-((2-hydroxyethyl)sulfonyl)phenyl)amino)-2,6-naphthyridin-1-yl)pyrrolidin-3-ol]
10 | – | > 250 nM | – | – | – | – | – | – | > 250 nM | > 250 nM | > 250 nM | CN1CCC(c2nccc3cnc(Nc4ccc(S(C)(=O)=O)cc4)cc23)C1 (racemic) [Ex 229, 5-(1-methylpyrrolidin-3-yl)-N-(4-(methylsulfonyl)phenyl)-2,6-naphthyridin-3-amine]
11 | – | > 250 nM | – | – | – | – | – | – | > 250 nM | > 250 nM | > 250 nM | CS(=O)(=O)c1ccc(Nc2cc3c(C4CCN(Cc5ccccc5)C4)nccc3cn2)cc1 (racemic) [Ex 230, 5-(1-benzylpyrrolidin-3-yl)-N-(4-(methylsulfonyl)phenyl)-2,6-naphthyridin-3-amine]
12 | – | > 250 nM | – | – | – | – | – | – | > 250 nM | > 250 nM | > 250 nM | COc1ccc(CN2CCC(c3nccc4cnc(Nc5ccc(S(C)(=O)=O)cc5)cc34)C2)cc1 (racemic) [Ex 231, 5-(1-(4-methoxybenzyl)pyrrolidin-3-yl)-N-(4-(methylsulfonyl)phenyl)-2,6-naphthyridin-3-amine]
13 | – | > 250 nM | – | – | – | – | – | – | > 250 nM | > 250 nM | > 250 nM | CS(=O)(=O)c1ccc(Nc2cc3c(C4CCN(Cc5cccnc5)C4)nccc3cn2)cc1 (racemic) [Ex 232, N-(4-(methylsulfonyl)phenyl)-5-(1-(pyridin-3-ylmethyl)pyrrolidin-3-yl)-2,6-naphthyridin-3-amine]
14 | 25 to 250 nM | > 250 nM | – | – | – | – | – | – | > 250 nM | > 250 nM | – | CS(=O)(=O)c1ccc(Nc2cc3c(C4CCN(Cc5ccc(Cl)cc5)C4)nccc3cn2)cc1 (racemic) [Ex 233, 5-(1-(4-chlorobenzyl)pyrrolidin-3-yl)-N-(4-(methylsulfonyl)phenyl)-2,6-naphthyridin-3-amine]
15 | – | > 250 nM | – | – | – | – | – | – | > 250 nM | > 250 nM | > 250 nM | CCC(=O)N1CCC(c2nccc3cnc(Nc4ccc(S(C)(=O)=O)cc4)cc23)C1 (racemic) [Ex 234, 1-(3-(7-((4-(methylsulfonyl)phenyl)amino)-2,6-naphthyridin-1-yl)pyrrolidin-1-yl)propan-1-one]
16 | – | > 250 nM | – | – | – | – | – | – | > 250 nM | > 250 nM | > 250 nM | CS(=O)(=O)c1ccc(Nc2cc3c(C4CCN(S(C)(=O)=O)C4)nccc3cn2)cc1 (racemic) [Ex 235, N-(4-(methylsulfonyl)phenyl)-5-(1-(methylsulfonyl)pyrrolidin-3-yl)-2,6-naphthyridin-3-amine]
17 | – | > 250 nM | – | – | – | – | – | – | > 250 nM | > 250 nM | > 250 nM | CC(C)S(=O)(=O)N1CCC(c2nccc3cnc(Nc4ccc(S(C)(=O)=O)cc4)cc23)C1 (racemic) [Ex 236, 5-(1-(isopropylsulfonyl)pyrrolidin-3-yl)-N-(4-(methylsulfonyl)phenyl)-2,6-naphthyridin-3-amine]
18 | – | > 250 nM | – | – | – | – | – | – | > 250 nM | > 250 nM | > 250 nM | C=CCS(=O)(=O)N1CCC(c2nccc3cnc(Nc4ccc(S(C)(=O)=O)cc4)cc23)C1 (racemic) [Ex 237, 5-(1-(allylsulfonyl)pyrrolidin-3-yl)-N-(4-(methylsulfonyl)phenyl)-2,6-naphthyridin-3-amine]
19 | – | > 250 nM | – | – | – | – | – | – | > 250 nM | > 250 nM | > 250 nM | CS(=O)(=O)c1ccc(Nc2cc3c(C4CCN(S(=O)(=O)c5cccnc5)C4)nccc3cn2)cc1 (racemic) [Ex 238, N-(4-(methylsulfonyl)phenyl)-5-(1-(pyridin-3-ylsulfonyl)pyrrolidin-3-yl)-2,6-naphthyridin-3-amine]
20 | – | > 250 nM | – | – | – | – | – | – | > 250 nM | > 250 nM | > 250 nM | CS(=O)(=O)c1ccc(Nc2cc3c(C4CCN(S(=O)(=O)C5CC5)C4)nccc3cn2)cc1 (racemic) [Ex 239, 5-(1-(cyclopropylsulfonyl)pyrrolidin-3-yl)-N-(4-(methylsulfonyl)phenyl)-2,6-naphthyridin-3-amine]
